{"source": "patent US20130189248A1", "about": "“EGFR INHIBITOR AND ANTIVIRAL AGENT FOR SIMULTANEOUS, SEPARATE OR SEQUENTIAL USE IN THE TREATMENT AND/OR PREVENTION AND/OR PALLIATION OF CANCER” (priority 2010, published 2013)", "key": {"viral DNA polymerase": {"system": "viral DNA polymerase", "settings": "cited from earlier work"}, "[1]": {"system": "C33A cells (human HPV-negative cervical carcinoma cells)", "type": "cell-based", "protocol": "(§1) The cell lines are available from the American Type Culture Collection (ATCC): • HeLa cells (human HPV-positive cervical carcinoma cells): ATCC n° CCL-2; • Me180 cells (human HPV-positive cervical carcinoma cells): ATCC n° HTB-33; • C33A cells (human HPV-negative cervical carcinoma cells): ATCC n° HTB-31. • H460 cells (human HPV-negative lung carcinoma cells): ATCC n° HTB-177.\n(§2) The cell lines were grown in humid incubators at 37° C. under 5% CO2.\n(§3) Each of said treatments last the 10-15 days of the clonogenic assay.\n(§4) The culture medium has not been replaced during the assay.\n(§5) The cultures were stopped by fixing and staining with crystal violet (methanol 80%, formaldehyde 10%, crystal violet 1.25 g), when the clones reached 50 cells. The clones were then counted and related to the number of cells cultured to obtain the fraction of surviving cells.\n(§6) The Bliss additivity model was used to classify the effect of the drug combination as synergistic, additive or antagonist.\n(§7) A theoretical curve of the expected effect of the combination was calculated from the equation:\n(§8) Bliss effect=effect A+effect B−effect A×effect B,\n(§9) where effect A and effect B are the effects of drugs A and B alone at specific concentrations.\n(§10) Here, the Bliss effect is the expected effect when the combination of the two drugs is exactly additive. If the observed effect (the experimentally measured effect of the combination) is lower than the Bliss effect, the effect of the combination is said to be antagonist (delta=observed effect−Bliss effect is a negative value). If the observed effect is greater than the Bliss effect, the effect of the combination is synergistic (delta is positive).\n(§11) The data are expressed as a percentage decrease in cell viability beyond that which would be expected if the association were strictly additive."}, "[2]": {"system": "Me180 cells (human HPV-positive cervical carcinoma cells)", "assay": "Clonogenicity test on Me180 cells (with Bliss additivity model)", "type": "cell-based", "protocol": "as §1\nMe180 cells were grown in the GIBCO® McCoy's 5A medium (available from Invitrogen under catalog reference number 26600023), supplemented with 10% FCS, 1% penicillin/streptomycin and 1% glutamine.\nas §2, §3, §4, §5, §6, §7, §8, §9, §10, §11"}, "[3]": {"system": "HeLa cells (human HPV-positive cervical carcinoma cells)", "assay": "Clonogenicity test on HeLa cells (with Bliss additivity model)", "type": "cell-based", "protocol": "as §1\nThe HeLa cells contained 10-50 copies of integrated HPV18.\nas §2, §3, §4, §5, §6, §7, §8, §9, §10, §11"}, "herpesvirus polymerases": {"system": "herpesvirus polymerases", "settings": "cited from earlier work"}, "[4]": {"system": "H460 cells (human HPV-negative lung carcinoma cells)", "assay": "Clonogenicity test on H460 cells", "type": "cell-based", "settings": "H460 (printed H480); cidofovir alone (10 μg/mL, FIG. 4A)", "protocol": "as §1, §2, §3, §4, §5"}, "HeLa xenograft": {"system": "HeLa xenograft", "assay": "HeLa xenograft in female nude mice", "type": "in vivo", "settings": "cidofovir i.p. days 1-5, cetuximab i.p. 1 mg/mouse days 1, 4, 7, alone or combined", "protocol": "Unless otherwise indicated, materials and methods are those described in example 1 above. The in vivo experiments were carried out at the Institut Gustave Roussy (94805 Villejuif; France), with the approval of the French Ministry of Agriculture.\n10- to 12-week old female nude mice were injected subcutaneously (into the flank) with 2×10^6 live HeLa cells suspended in 100 μL of culture medium without Fetal Calf Serum (FCS) to study tumor growth. […] Tumor volume and weight were monitored twice a week. The mice were sacrificed when the tumor reached ten times the initial volume."}, "[5]": {"settings": "cidofovir 3 mg/kg, AIDS patients with CMV retinitis, after 1 hour of infusion; cited from earlier work"}, "Me180 xenograft": {"system": "Me180 xenograft", "assay": "Me180 xenograft in mice", "type": "in vivo", "settings": "cidofovir, cetuximab alone or combined"}, "[6]": {"settings": "human, in vivo; cited from earlier work"}, "[7]": {"settings": "foscarnet sodium alone 200 μM/mL, listed as Foscarnet"}, "[8]": {"settings": "foscarnet sodium alone 200 μM/mL, listed as Foscarnet sodium"}, "[9]": {"settings": "erlotinib alone 0.1 μM/mL, listed as Erlotinib"}}, "note": "Like-named read-outs stand apart in the source and are kept apart here."}
{"compound": "Nc1nc2c(ncn2COCCOP(=O)(O)OP(=O)(O)OP(=O)(O)O)c(=O)[nH]1", "note": "[Acyclo-GTP, acyclo-guanosine triphosphate]", "values": [{"measurement": "times greater affinity for viral than cellular polymerase", "setting": "viral DNA polymerase", "result": "approximately 100 times"}]}
{"compound": "O=C(O)P(=O)(O)O", "note": "[foscarnet, phosphonoformic acid]", "values": [{"measurement": "reduction in clonogenicity compared to the control / Decrease in living cells (%)", "setting": "[1]; [7]", "result": "minus 20%"}, {"measurement": "reduction in clonogenicity compared to the control / Decrease in living cells (%)", "setting": "[1]; [8]", "result": 20, "unit": "%"}, {"measurement": "reduction in clonogenicity compared to the control / Decrease in living cells (%)", "setting": "[2]; [7]", "result": "minus 35%"}, {"measurement": "reduction in clonogenicity compared to the control / Decrease in living cells (%)", "setting": "[2]; [8]", "result": 35, "unit": "%"}, {"measurement": "reduction in clonogenicity compared to the control / Decrease in living cells (%)", "setting": "[3]; [7]", "result": "minus 20%"}, {"measurement": "reduction in clonogenicity compared to the control / Decrease in living cells (%)", "setting": "[3]; [8]", "result": 20, "unit": "%"}]}
{"compound": "C#Cc1cccc(Nc2ncnc3cc(OCCOC)c(OCCOC)cc23)c1", "note": "[erlotinib, N-(3-ethynylphenyl)-6,7-bis(2-methoxyethoxy)-4-quinazolinamine]", "values": [{"measurement": "reduction in clonogenicity compared to the control / Decrease in living cells (%)", "setting": "[1]; erlotinib alone 0.1 μM/mL", "result": "minus 10%"}, {"measurement": "reduction in clonogenicity compared to the control / Decrease in living cells (%)", "setting": "[1]; [9]", "result": 10, "unit": "%"}, {"measurement": "reduction in clonogenicity compared to the control / Decrease in living cells (%)", "setting": "[2]; erlotinib alone 0.1 μM/mL", "result": "minus 50%"}, {"measurement": "reduction in clonogenicity compared to the control / Decrease in living cells (%)", "setting": "[2]; [9]", "result": 50, "unit": "%"}, {"measurement": "reduction in clonogenicity compared to the control / Decrease in living cells (%)", "setting": "[2]; erlotinib alone 0.5 μM/mL", "result": "minus 80%"}, {"measurement": "reduction in clonogenicity compared to the control / Decrease in living cells (%)", "setting": "[2]; erlotinib alone 0.5 μM/mL, listed as Erlotinib", "result": 80, "unit": "%"}, {"measurement": "reduction in clonogenicity compared to the control / Decrease in living cells (%)", "setting": "[3]; erlotinib alone 0.1 μM/mL", "result": "minus 50%"}, {"measurement": "reduction in clonogenicity compared to the control / Decrease in living cells (%)", "setting": "[3]; [9]", "result": 50, "unit": "%"}]}
{"compound": "Cidofovir diphosphate", "values": [{"measurement": "fold lower concentration needed to inhibit herpesvirus polymerases than human cellular DNA polymerases", "setting": "herpesvirus polymerases", "result": "8- to 600 fold"}]}
{"compound": "Nc1ccn(C[C@@H](CO)OCP(=O)(O)O)c(=O)n1", "note": "[cidofovir, 1-[(S)-3-hydroxy-2-(phophonomethoxy)propyl]cytosine dehydrate]", "values": [{"measurement": "effect on cell survival", "setting": "[4]", "result": "no significant effect"}, {"measurement": "tumor growth (tumor volume) compared to the control group", "setting": "HeLa xenograft", "result": "does not reduce tumor growth"}, {"measurement": "plasmatic concentration", "setting": "[5]", "result": "7.6 ± 1.4", "unit": "µg/mL"}, {"measurement": "tumor growth compared to the control group", "setting": "Me180 xenograft", "result": "does not reduce tumor growth"}, {"measurement": "reduction in cell survival compared to the control", "setting": "[1]; cidofovir alone 1 μg/mL", "result": "about 20%"}, {"measurement": "reduction in cell survival / clonogenicity compared to the control / Decrease in living cells (%)", "setting": "[1]; cidofovir alone 5 μg/mL", "result": "minus 20%"}, {"measurement": "concentration at which the drug alone had an effect on the cells", "setting": "[2]; cidofovir alone", "result": "at least 1 μg/mL"}, {"measurement": "reduction in cell survival (clonogenicity) compared to the control", "setting": "[2]; cidofovir alone 1 μg/mL", "result": "about 30%"}, {"measurement": "reduction in clonogenicity compared to the control / Decrease in living cells (%)", "setting": "[2]; cidofovir alone 5 μg/mL", "result": 40, "unit": "%"}, {"measurement": "concentration at which the drug alone had an effect on clonogenicity", "setting": "[3]; cidofovir alone", "result": "at least 5 μg/mL"}, {"measurement": "reduction in clonogenicity compared to the control / Decrease in living cells (%)", "setting": "[3]; cidofovir alone 5 μg/mL", "result": 15, "unit": "%"}, {"measurement": "reduction in clonogenicity compared to the control", "setting": "[3]; cidofovir alone 10 μg/mL", "result": 25, "unit": "%"}, {"measurement": "clonogenic survival", "setting": "[3]; cidofovir alone at 1 μg/mL", "result": "about 100%"}]}
{"compound": "Vectibix®: recombinant, fully human IgG2 kappa monoclonal antibody that binds specifically to the human EGFR", "values": [{"measurement": "incidence of NCI-CTC grade 3-5 adverse reactions", "setting": "[6]", "result": 87, "unit": "%"}, {"measurement": "patients with dermatologic toxicities", "setting": "[6]", "result": 89, "unit": "%"}, {"measurement": "patients with severe dermatologic toxicities (NCI-CTC grade 3 and higher)", "setting": "[6]", "result": 12, "unit": "%"}]}
